Reference: PubChem BioAssay (NCI)
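A five-concentration, 48-hour dose response in 96-well plates underlies each endpoint, interpolated linearly between surrounding concentrations. Abbreviation: GI50, concentration required for 50% inhibition of growth. Definition used: TGI = concentration required for complete inhibition of growth.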

Tests used:
Test in all cases: inhibition of tumour cell growth, NCI panel, 48 h
[1] = tested on: MDA-MB-468 breast
[2] = tested on: HT29 colon
[3] = tested on: SK-MEL-2 melanoma
[4] = tested on: HCT-116 colon
[5] = tested on: T-47D breast
[6] = tested on: MCF7 breast
[7] = tested on: EKVX NSCLC
[8] = tested on: A498 renal
[9] = tested on: SN12C renal
[10] = tested on: HS 578T breast
[11] = tested on: SK-MEL-28 melanoma
[12] = tested on: IGROV1 ovarian
[13] = tested on: TK-10 renal
[14] = tested on: SF-268 CNS
[15] = tested on: MOLT-4 leukemia
[16] = tested on: KM12 colon
[17] = tested on: A549 NSCLC
[18] = tested on: OVCAR-8 ovarian
[19] = tested on: MALME-3M melanoma
[20] = tested on: PC-3 prostate
[21] = tested on: OVCAR-4 ovarian
[22] = tested on: HL-60(TB) leukemia
[23] = tested on: NCI-H23 lung
[24] = tested on: SR leukemia
[25] = tested on: NCI-H460 lung
[26] = tested on: SF-295 CNS
[27] = tested on: SK-MEL-5 melanoma
[28] = tested on: 786-0 renal
[29] = tested on: HCT-15 colon
[30] = tested on: HCC-2998 colon
[31] = tested on: MDA-MB-231 breast
[32] = tested on: COLO 205 colon
[33] = tested on: M14 melanoma
[34] = tested on: SF-539 CNS
[35] = tested on: HOP-62 NSCLC
[36] = tested on: OVCAR-3 ovarian
[37] = tested on: MDA-MB-435
[38] = tested on: DU-145 prostate
[39] = tested on: BT-549 breast
[40] = tested on: UACC-62 melanoma
[41] = tested on: K-562 leukemia
[42] = tested on: SNB-19 CNS
[43] = tested on: UACC-257 melanoma
[44] = tested on: NCI-H522 lung
[45] = tested on: ACHN renal
[46] = tested on: CAKI-1 renal
[47] = tested on: RXF 393 renal
[48] = tested on: HOP-92 NSCLC
[49] = tested on: OVCAR-5 ovarian
[50] = tested on: NCI-H226 lung
[51] = tested on: SW-620 colon
[52] = tested on: UO-31 renal
[53] = tested on: SK-OV-3 ovarian
[54] = tested on: U251 CNS

Work on `Cc1cc(=O)oc2cc(OCCOc3ccc(/C=C/C(=O)Nc4ccccc4N)cc3)ccc12` yielded a GI50 [1] of 3.41 µM, a TGI [1] of 96.2 µM and a GI50 [2] of 4.45 µM. It also gave a TGI [2] of over 100 µM, a GI50 [3] of 5.81 µM and a TGI [3] of over 100 µM. For the same compound, the GI50 [4] was 3.31 µM, the TGI [4] was over 100 µM and the GI50 [5] was 1.59 µM. It also gave a TGI [5] of over 100 µM, a GI50 [6] of 1.27 µM and a TGI [6] of over 100 µM. The GI50 [7] was 6.5 µM, the TGI [7] was over 100 µM and the GI50 [8] was 2.74 µM. The TGI [8] was 9.36 µM, the GI50 [9] was 2.77 µM and the TGI [9] was over 100 µM. It also gave a GI50 [10] of over 100 µM, a TGI [10] of over 100 µM and a GI50 [11] of 5.2 µM. For the same compound, the TGI [11] was over 100 µM, the GI50 [12] was 2.08 µM and the TGI [12] was over 100 µM. It also gave a GI50 [13] of 9.25 µM, a TGI [13] of over 100 µM and a GI50 [14] of 4.43 µM. For the same compound, the TGI [14] was over 100 µM, the GI50 [15] was 0.294 µM and the TGI [15] was 1.34 µM. For the same compound, the GI50 [16] was 5.12 µM, the TGI [16] was over 100 µM and the GI50 [17] was 4.27 µM. For the same compound, the TGI [17] was over 100 µM, the GI50 [18] was 3.99 µM and the TGI [18] was over 100 µM. The GI50 [19] was 3.89 µM, the TGI [19] was over 100 µM and the GI50 [20] was 3.1 µM. It also gave a TGI [20] of over 100 µM, a GI50 [21] of 4.86 µM and a TGI [21] of over 100 µM. The GI50 [22] was 0.369 µM, the TGI [22] was 2.62 µM and the GI50 [23] was 6.05 µM. For the same compound, the TGI [23] was over 100 µM, the GI50 [24] was 5.66 µM and the TGI [24] was over 100 µM. For the same compound, the GI50 [25] was 2.74 µM, the TGI [25] was over 100 µM and the GI50 [26] was 4.8 µM. It also gave a TGI [26] of over 100 µM, a GI50 [27] of 1.48 µM and a TGI [27] of 3.2 µM. The GI50 [28] was 3.75 µM, the TGI [28] was over 100 µM and the GI50 [29] was 3.17 µM. It also gave a TGI [29] of over 100 µM, a GI50 [30] of 5.47 µM and a TGI [30] of over 100 µM. The GI50 [31] was 2.55 µM, the TGI [31] was 35.1 µM and the GI50 [32] was 3.68 µM. For the same compound, the TGI [32] was over 100 µM, the GI50 [33] was 9.87 µM and the TGI [33] was over 100 µM. The GI50 [34] was 2.58 µM, the TGI [34] was over 100 µM and the GI50 [35] was 8.17 µM. The TGI [35] was over 100 µM, the GI50 [36] was 4.19 µM and the TGI [36] was over 100 µM. For the same compound, the GI50 [37] was 6.69 µM, the TGI [37] was over 100 µM and the GI50 [38] was 6.8 µM. The TGI [38] was over 100 µM, the GI50 [39] was 1.2 µM and the TGI [39] was 4.93 µM. The GI50 [40] was 3.74 µM, the TGI [40] was over 100 µM and the GI50 [41] was 3.01 µM. It also gave a TGI [41] of over 100 µM, a GI50 [42] of 4.42 µM and a TGI [42] of over 100 µM. It also gave a GI50 [43] of 2.87 µM, a TGI [43] of over 100 µM and a GI50 [44] of 4 µM. The TGI [44] was over 100 µM, the GI50 [45] was 5.52 µM and the TGI [45] was over 100 µM. The GI50 [46] was 4.58 µM, the TGI [46] was over 100 µM and the GI50 [47] was 3.64 µM. The TGI [47] was over 100 µM, the GI50 [48] was 3.45 µM and the TGI [48] was over 100 µM. For the same compound, the GI50 [49] was 6.43 µM, the TGI [49] was over 100 µM and the GI50 [50] was 4.09 µM. For the same compound, the TGI [50] was over 100 µM, the GI50 [51] was 4.16 µM and the TGI [51] was over 100 µM. For the same compound, the GI50 [52] was 1.31 µM, the TGI [52] was over 100 µM and the GI50 [53] was 8.39 µM. The TGI [53] was over 100 µM, the GI50 [54] was 5.59 µM and the TGI [54] was over 100 µM.
